Measurements: US20020061599A1, “Method of identifying ligands of biological target molecules” (priority 1999, published 2002)
“Also recorded” adds a separate entry of the source. Values belong to the molecule of their own block, whether it stands above or below them.

Columns and labels:
galanin R1 receptor = molecular target: T1, galanin R1 receptor (Homo sapiens, UniProt P47211); assay: Whole cell competition binding with [125I]-galanin in COS-7 cells expressing galanin receptor; conditions: for binding affinity compared with the basic chelator 1,10-phenanthroline: chelator in complex with Cu(II)
T1 construct: expressed in transfected cells; host or cells: COS-7
T1 sequence (P47211 1-349): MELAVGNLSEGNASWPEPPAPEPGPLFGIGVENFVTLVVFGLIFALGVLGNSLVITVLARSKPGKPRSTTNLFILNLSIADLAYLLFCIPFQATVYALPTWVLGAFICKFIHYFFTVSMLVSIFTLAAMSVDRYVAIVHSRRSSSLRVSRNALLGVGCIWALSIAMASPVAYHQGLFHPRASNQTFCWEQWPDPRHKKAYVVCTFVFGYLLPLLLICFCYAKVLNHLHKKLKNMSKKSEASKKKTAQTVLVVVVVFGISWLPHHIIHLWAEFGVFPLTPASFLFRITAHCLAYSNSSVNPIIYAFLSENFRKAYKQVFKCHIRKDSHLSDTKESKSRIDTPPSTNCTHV
Excerpt: Whole cell competition binding experiment with COS-7 cells expressing the wild type and mutant forms of the galanin receptor using [^125I]-galanin as radioligand.
Methods—The galanin receptor cDNA was introduced into COS-7 cells by the standard calcium phosphate transfection method. The cells were transferred and seeded in multi-well plates for assay one day following the transfection and the number of cells plated per well was adjusted for each individual (wild type and mutant) construct aiming at the binding of 5 to 10% of the radioligand present in the assay. Two days post-transfection the cells were assayed for the presence of [^125]-Galanin binding activity. Radioligand was bound in buffer composed of 25 mM Hepes (pH 7.4), 2.5 mM MgCl2, […] Baciacin and displaced in a dose dependent manner by unlabelled ligand. The assay was performed in triplicate for 3 hours at 4° C., and terminated by the addition of lysis buffer (48% urea, 2% NP-40 in 3M acetic acid). The concentration of radioligand in the assay corresponds to a final concentration of 20 pM.

Factor VIIa (FVIIa) = molecular target: T2, Factor VIIa (FVIIa) (Homo sapiens, UniProt P08709); assay: Amidolytic activity of Factor VIIa; format: biochemical; conditions: for effect on the activity of FVIIa: chelator without metal-ions
T2 construct: Factor VIIa, i.e. the active form of the FVII protease involved in the coagulation cascade; purchased American Diagnostica
T2 sequence (P08709 213-466 limits assumed): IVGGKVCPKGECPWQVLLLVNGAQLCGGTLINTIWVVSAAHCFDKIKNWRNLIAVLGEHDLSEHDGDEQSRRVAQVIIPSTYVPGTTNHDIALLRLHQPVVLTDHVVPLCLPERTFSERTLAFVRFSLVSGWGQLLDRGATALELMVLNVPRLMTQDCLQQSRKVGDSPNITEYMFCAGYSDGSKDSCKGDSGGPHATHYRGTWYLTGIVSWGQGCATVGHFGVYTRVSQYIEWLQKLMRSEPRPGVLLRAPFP
T2 sequence (P08709 61-212 partner limits assumed): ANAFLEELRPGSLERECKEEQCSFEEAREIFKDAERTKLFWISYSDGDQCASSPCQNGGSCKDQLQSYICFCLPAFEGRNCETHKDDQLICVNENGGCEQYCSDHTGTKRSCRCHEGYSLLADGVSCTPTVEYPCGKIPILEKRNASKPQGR
Experimental: Method—The amidolytic activity of Factor VIIa (FVIIa) was measured by the incubation of 2.5 μl FVIIa (100 nM final concentration, obtained from American Diagnostica), 2.5 μl ligand and 4 μl substrate (10 mM, S2288 obtained from Chromogenix) in 42.5 μl buffer (50 mM Hepes pH 7.4, 1 mM CaCl2, 100 mM NaCl, 0,02% Tween 20). The assay was performed in 96-well plates (Costar). Incubation was performed at room temperature for five hours with absorbance read every 10 minutes.

dopamine transporter = molecular target: T3, dopamine transporter (Homo sapiens, UniProt Q01959); assay: [3H]-dopamine uptake in COS-7 cells expressing wild-type dopamine transporter; format: cell-based; conditions: for effect on dopamine transport: chelator by itself, without metal-ion
T3 construct: expressed in transfected cells; host or cells: COS-7
Experimental: Competition analysis of uptake of [^3H]-dopamine in whole COS-7 cells expressing the dopamine transporter.
(§1) Methods—The dopamine transporter cDNA was introduced into COS-7 by the standard calcium phosphate transfection method. Two days post-transfection the cells were assayed for [^3H]-Dopamine uptake activity. The uptake assays was performed in 25 mM Hepes pH 7.4, 120 mM NaCl, 5 mM KCl, 1.2 mM CaCl2, 1.2 mM MgSO4, 1 mM ascorbic acid and 5 mM D-glucose and in the presence of various concentrations of unlabelled dopamine as indicated in the figures. The assay was performed in triplicate at 37° C. for 10 minutes, and terminated by washing with buffer twice and the addition of lysis buffer (48% urea, 2% NP-40 in 3M acetic acid).

[1] = molecular target: T4, leukotriene LTB4 receptor (Homo sapiens, UniProt Q15722); assay: Whole cell competition binding with [3H]-LTB4 in COS-7 cells expressing wild type LTB4 receptor
T4 construct: expressed in transfected cells; host or cells: COS-7
Excerpt: Whole cell competition binding experiment with COS-7 cells expressing the wild type and mutant variants of the leukotriene LTB4 receptor using [^3H]-LTB4 as the radioligand.
Methods—The leukotriene LTB4 receptor cDNA was cloned by PCR from a leukocyte cDNA library, built into an eukaryotic expression vector and introduced into COS-7 cells by a standard calcium phosphate transfection method. One day after transfection the cells were transferred and seeded in multi-well plates for assay. The number of cells plated per well was chosen so as to obtain 5 to 10% binding of the radioligand added. Two days after transfection the cells were assayed for the presence of [^3H]-LTB4 binding activity. […] The assay was performed in duplicate for 3 hours at 4° C., and stopped by washing twice in buffer. Cell associated, receptor bound radioligand was determined by the addition of lysis buffer (48% urea, 2% NP-40 in 3M acetic acid).

[2] = tested on: metal-ion site engineered tachykinin NK1 receptors; assay: Competition binding with [125I]-Substance P, library of inter-helical metal-ion sites engineered into NK1 receptor; conditions: sites between TM-III and -V and between TM-V and -VI
Experimental: COS-7 cells expressing various engineered forms of the NK1 receptor were analyzed by competition binding using [^125I]-Substance P as radioligand

[3] = molecular target: T5, NK1 receptor [HisV:05,HisVI:24] (Homo sapiens, UniProt P25103, Y272H); assay: Competition binding with [125I]-Substance P, NK1 receptor [HisV:05,HisVI:24] site; conditions: all in complex with Zn(II)
T5 construct: expressed in transfected cells; host or cells: COS-7
Experimental: (§2) Binding of [^125I]-Substance P was analysed in COS-7 cells expressing NK1 receptor which have been engineered to bind the zinc metal-ion. Ligand binding is presented in competiton with the zinc metal-ion, the zinc-1,10-phenanthroline complex and with other zinc-chelator complexes as indicated. For structures of the chelators, see Appendix.

[4] = molecular target: T6, NK1 receptor [HisIII:08;CysVII:06] (Homo sapiens, UniProt P25103, M291C/P112H); assay: Competition binding with [125I]-Substance P, NK1 receptor [HisIII:08;CysVII:06] site; conditions: all in complex with Zn(II)
T6 construct: expressed in transfected cells; host or cells: COS-7
Experimental: as §2

[5] = molecular target: T7, [H193K] dopamine transporter (Homo sapiens, UniProt Q01959, H193K); assay: [3H]-dopamine uptake in COS-7 cells, [H193K] mutant dopamine transporter; format: cell-based; conditions: mutational substitution of His193; chelator in complex with Zn(II)
T7 construct: expressed in transfected cells; host or cells: COS-7
Experimental: Panel B. Dopamine uptake analysis in a mutant form of the dopamine transporter, [H193K], in which binding of the metal-ion complex has been eliminated (Noregaard et al. EMBO J. (1998) 17: 4266-4273).
as §1

T6 sequence (P25103 whole entry P112H/M291C): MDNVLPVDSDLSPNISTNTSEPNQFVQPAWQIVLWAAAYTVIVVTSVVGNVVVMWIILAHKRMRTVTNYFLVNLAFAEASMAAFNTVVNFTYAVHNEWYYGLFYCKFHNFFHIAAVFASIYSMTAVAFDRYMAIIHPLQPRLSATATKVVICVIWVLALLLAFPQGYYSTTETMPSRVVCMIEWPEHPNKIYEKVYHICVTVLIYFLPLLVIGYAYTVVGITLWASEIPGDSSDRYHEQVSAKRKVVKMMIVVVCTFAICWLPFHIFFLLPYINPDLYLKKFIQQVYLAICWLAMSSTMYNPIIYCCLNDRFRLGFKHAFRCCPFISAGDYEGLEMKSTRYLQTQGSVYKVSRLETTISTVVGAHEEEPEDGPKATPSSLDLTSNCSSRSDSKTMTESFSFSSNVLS
T5 sequence (P25103 whole entry Y272H): as the sequence (P25103 whole entry P112H/M291C) above, with H112P, Y272H, C291M counted along it
T4 sequence (Q15722 whole entry): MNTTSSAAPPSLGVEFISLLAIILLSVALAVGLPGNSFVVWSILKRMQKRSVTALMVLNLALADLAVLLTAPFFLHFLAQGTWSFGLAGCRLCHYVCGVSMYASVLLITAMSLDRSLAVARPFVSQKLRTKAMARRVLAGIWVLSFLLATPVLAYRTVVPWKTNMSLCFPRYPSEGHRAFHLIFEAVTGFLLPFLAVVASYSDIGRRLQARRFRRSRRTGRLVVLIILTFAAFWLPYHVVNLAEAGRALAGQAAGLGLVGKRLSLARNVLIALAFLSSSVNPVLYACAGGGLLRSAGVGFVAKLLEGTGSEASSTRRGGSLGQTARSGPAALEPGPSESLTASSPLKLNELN
T3 sequence (Q01959 whole entry): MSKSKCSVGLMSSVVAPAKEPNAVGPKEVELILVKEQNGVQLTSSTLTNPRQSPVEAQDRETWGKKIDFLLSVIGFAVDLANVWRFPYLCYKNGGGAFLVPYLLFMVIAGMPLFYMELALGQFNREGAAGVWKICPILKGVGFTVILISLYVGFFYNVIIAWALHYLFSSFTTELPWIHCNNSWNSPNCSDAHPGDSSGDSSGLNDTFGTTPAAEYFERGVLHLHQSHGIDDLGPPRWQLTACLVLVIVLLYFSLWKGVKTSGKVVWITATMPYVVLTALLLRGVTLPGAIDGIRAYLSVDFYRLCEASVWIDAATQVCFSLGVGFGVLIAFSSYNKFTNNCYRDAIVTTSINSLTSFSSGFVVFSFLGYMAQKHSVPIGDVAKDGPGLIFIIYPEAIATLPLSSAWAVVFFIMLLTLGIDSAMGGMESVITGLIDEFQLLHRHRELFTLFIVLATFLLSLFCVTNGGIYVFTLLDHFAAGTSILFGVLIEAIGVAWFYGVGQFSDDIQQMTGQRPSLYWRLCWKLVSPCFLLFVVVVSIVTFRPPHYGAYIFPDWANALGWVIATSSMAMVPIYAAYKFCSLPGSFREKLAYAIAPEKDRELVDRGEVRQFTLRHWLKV
T7 sequence (Q01959 whole entry H193K): as the sequence (Q01959 whole entry) above, with H193K counted along it

Compound: c1ccc(-c2ccccn2)nc1 [2,2′-bipyridine, reference compound]
effect on dopamine transport (dopamine transporter): no effect | effect on the activity of FVIIa (Factor VIIa (FVIIa)): no effect

Compound: [Cl][Cu][Cl] [Cu(II), reference compound]
IC50 ([1]; wild type receptor, whole COS-7 cells, read-out: IC50, displacement of [3H]-LTB4): 70 µM | Hill coefficient (galanin R1 receptor; displacement of [125I]-galanin): −4 | increase in affinity versus wild-type [2]: no increase or just a marginal increase in affinity

Compound: OCc1ccc2ccc3ccc(CO)nc3c2n1 [compound 133, 2,9-dimethanol-1,10-phenanthroline]
binding affinity compared with the basic chelator 1,10-phenanthroline (galanin R1 receptor): decrease the affinity

Compound: ClC(Cl)(Cl)c1ccc2ccc3ccc(C(Cl)(Cl)Cl)nc3c2n1 [compound 135, 2,9-bis(trichloromethyl)-1,10-phenanthroline]
binding, fold better than 1,10-phenanthroline [3]: 6 fold | binding compared with 1,10′-phenanthroline [4]: almost similar | potency of inhibiting FVIIa compared with the basic chelator complex (Factor VIIa (FVIIa); chelator in complex with Zn(II)): increased potency

Compound: CC(=O)O/N=C(\N)c1ccccn1 [compound 210, 2-pyridylamidoxime, O-acetyl]
effect on dopamine transport (dopamine transporter): does not affect | potency of blocking dopamine transport, fold higher than free Zn(II) (dopamine transporter; chelator in complex with Zn(II), mono-component): approx 10 fold | effect of the metal-ion chelator complex on dopamine transport [5]: eliminated

Further lines, with some results ahead:

effect on [125I]-galanin binding (galanin R1 receptor; chelator alone, without metal-ion): no effect | effect on the activity of FVIIa (Factor VIIa (FVIIa)): no effect
Compound: c1cnc2c(c1)ccc1cccnc12 [1,10-phenanthroline, reference compound]

binding affinity compared with the basic chelator 1,10-phenanthroline (galanin R1 receptor): bound like 1,10′-phenanthroline | potency compared with phenanthroline [3]: only slightly more potent | potency, fold more potent than phenanthroline [4]: 7 fold
Compound: c1ccc(-c2cc3cccnc3c3ncccc23)cc1 [compound 134, 5-phenyl-1,10-phenanthroline]
binding of the metal-ion chelator complex compared with 1,10-phenanthroline ([1]; chelator in complex with Cu(II)): entirely eliminated the binding; also recorded: totally inactive

binding, fold better than 1,10-phenanthroline [3]: 10 fold | binding compared with 1,10′-phenanthroline [4]: almost similar
Compound: O=C1C(=O)c2cccnc2-c2ncccc21 [compound 175, 1,10-phenanthroline-5,6-dione]

binding affinity compared with the basic chelator 1,10-phenanthroline (galanin R1 receptor): increase the binding affinity
Compound: Cc1cc2cccnc2c2ncccc12 [compound 176, 5-methyl-1,10-phenanthroline]
